Patent publication US12052991B2, “Substituted pyridinyloxybenzenes and salts thereof and use thereof as herbicidal agents” (Bayer Aktiengesellschaft, priority 2018, dated 2024)

Each compound was assayed on Agrostis tenuis (AGSTE) (assay: Herbicidal early post-emergence action (Table A1)). Details: 1900 g/ha; scored visually 9 to 12 days after treatment; 100% = plants have died, 0% = like control plants.
Format: in vivo
Description: (§1) Seeds of monocotyledonous and dicotyledonous weed plants were placed in 96-well microtiter plates in quartz sand and grown in a climatized chamber under controlled growth conditions. 5 to 7 days after sowing, the test plants were treated at the cotyledon stage. The compounds according to the invention, formulated in the form of emulsion concentrates (EC), were applied with a water application rate of the equivalent of 2200 liters per hectare. After the test plants had been left to stand in the climatized chamber for 9 to 12 days under optimum growth conditions, the effect of the preparations was scored visually in comparison to untreated controls. For example, 100% activity=the plants have died, 0% activity=like control plants. Tables A1 to A8 below show the effects of selected compounds of the general formula (I) according to Table 1 on various harmful plants and an application rate corresponding to 1900 g/ha, which were obtained by the experimental procedure mentioned above.
For `Cc1cc(-c2ccccc2Oc2ncc(Cl)cc2F)ncn1` [Example 1-109], the “Early post-emergence effect against Agrostis tenuis (AGSTE)” value (“Early post-emergence effect … (AGSTE)” for short) was 80%. For `Cc1cc(-c2ccccc2Oc2ccc(Cl)cn2)ncn1` [Example 1-108], the “Early post-emergence effect … (AGSTE)” value was 80%. For `Fc1cc(Cl)cnc1Oc1ccccc1-c1cc(C(F)(F)F)no1` [Example 1-112], the “Early post-emergence effect … (AGSTE)” value was 100%. For `Fc1cccc(Oc2ccccn2)c1-c1cc(C(F)F)on1` [Example 1-8], the “Early post-emergence effect … (AGSTE)” value was 80%. `FC(F)(F)c1ccnc(-c2ccccc2Oc2ccc(Cl)cn2)c1` [Example 1-70] was tested, and the “Early post-emergence effect … (AGSTE)” value was 100%. `CSc1cccc(Oc2ccc(Cl)cn2)c1-c1cc(C(F)F)no1` [Example 1-56] was tested, and the “Early post-emergence effect … (AGSTE)” value was 100%. `Fc1cc(Cl)cnc1Oc1ccccc1-c1cc(C(F)(F)F)ccn1` [Example 1-69] was tested, and the “Early post-emergence effect … (AGSTE)” value was 100%. For `Fc1ccc(Oc2cccc(F)c2-c2cc(C(F)F)no2)nc1` [Example 1-41], the “Early post-emergence effect … (AGSTE)” value was 80%. For `Fc1cc(Cl)cnc1Oc1ccccc1-c1ccc(C(F)(F)F)cn1` [Example 1-66], the “Early post-emergence effect … (AGSTE)” value was 100%. In the case of `Cn1nc(C(F)F)cc1-c1cc(F)ccc1Oc1ccc(Cl)cn1` [Example 1-32], the “Early post-emergence effect … (AGSTE)” value is reported as 80%.

What follows are compounds tested on Poa annua (POAAN) (assay: Herbicidal early post-emergence action (Table A3)). Details: 1900 g/ha; scored visually 9 to 12 days after treatment; 100% = plants have died, 0% = like control plants.
Format: in vivo
Description: as §1
In the case of `Cc1cc(-c2ccccc2Oc2ncc(Cl)cc2F)ncn1` [Example 1-109], the “Early post-emergence effect against Poa annua (POAAN)” value (“Early post-emergence effect … (POAAN)” for short) is reported as 100%. With `Cc1cc(-c2ccccc2Oc2ccc(Cl)cn2)ncn1` [Example 1-108] the “Early post-emergence effect … (POAAN)” value was 80%. In the case of `Fc1cc(Cl)cnc1Oc1ccccc1-c1cc(C(F)(F)F)no1` [Example 1-112], the “Early post-emergence effect … (POAAN)” value is reported as 100%. `FC(F)(F)c1ccnc(-c2ccccc2Oc2ccc(Cl)cn2)c1` [Example 1-70] was tested, and the “Early post-emergence effect … (POAAN)” value was 100%. For `CSc1cccc(Oc2ccc(Cl)cn2)c1-c1cc(C(F)F)no1` [Example 1-56], the “Early post-emergence effect … (POAAN)” value was 100%. For `Fc1cc(Cl)cnc1Oc1ccccc1-c1cc(C(F)(F)F)ccn1` [Example 1-69], the “Early post-emergence effect … (POAAN)” value was 100%. With `Fc1ccc(Oc2cccc(F)c2-c2cc(C(F)F)no2)nc1` [Example 1-41] the “Early post-emergence effect … (POAAN)” value was 100%. In the case of `Fc1cc(Cl)cnc1Oc1ccccc1-c1ccc(C(F)(F)F)cn1` [Example 1-66], the “Early post-emergence effect … (POAAN)” value is reported as 80%.

The compounds below were run on Diplotaxis tenuifolia (DIPTE) (assay: Herbicidal early post-emergence action (Table A5)). Details: 1900 g/ha; scored visually 9 to 12 days after treatment; 100% = plants have died, 0% = like control plants.
Format: in vivo
Description: as §1
With `Cc1cc(-c2ccccc2Oc2ncc(Cl)cc2F)ncn1` [Example 1-109] the “Early post-emergence effect against Diplotaxis tenuifolia (DIPTE)” value (“Early post-emergence effect … (DIPTE)” for short) was 80%. With `Fc1cccc(Oc2ncc(C(F)(F)F)cc2Cl)c1-c1cc(C(F)(F)F)on1` [Example 1-5] the “Early post-emergence effect … (DIPTE)” value was 80%. `Fc1cccnc1Oc1cccc(F)c1-c1cc(C(F)F)on1` [Example 1-14] was tested, and the “Early post-emergence effect … (DIPTE)” value was 80%. For `Fc1cccc(Oc2ccccn2)c1-c1cc(C(F)F)on1` [Example 1-8], the “Early post-emergence effect … (DIPTE)” value was 80%. With `Cn1nc(C(F)F)cc1-c1cc(F)ccc1Oc1ccc(Cl)cn1` [Example 1-32] the “Early post-emergence effect … (DIPTE)” value was 80%.

What follows are compounds tested on Matricaria chamonilla (MATCH) (assay: Herbicidal early post-emergence action (Table A6)). Details: 1900 g/ha; scored visually 9 to 12 days after treatment; 100% = plants have died, 0% = like control plants.
Format: in vivo
Description: as §1
`Cc1cc(-c2ccccc2Oc2ccc(Cl)cn2)ncn1` [Example 1-108] was tested, and the “Early post-emergence effect against Matricaria chamonilla (MATCH)” value (“Early post-emergence effect … (MATCH)” below) was 80%. `Fc1cc(Cl)cnc1Oc1ccccc1-c1cc(C(F)(F)F)no1` [Example 1-112] was tested, and the “Early post-emergence effect … (MATCH)” value was 80%. With `Cc1ccc(Oc2ccccc2-c2cccc(C(F)(F)F)n2)nc1` [Example 1-51] the “Early post-emergence effect … (MATCH)” value was 80%.

Each compound was assayed on corn (ZEAMX, var. Aventura) (assay: Pre-emergence crop plant compatibility (Table E1)). Details: dosage 80 g/ha, scored after about 3 weeks, 0% = like control plants.
Format: in vivo
Source text: (§2) Seeds of monocotyledonous and dicotyledonous crop plants were placed in plastic or organic plant pots and covered with soil. The compounds of the invention, formulated in the form of wettable powders (WP) or as emulsion concentrates (EC), were then applied to the surface of the covering soil as aqueous suspension or emulsion with addition of 0.5% additive at a water application rate equivalent to 600 l/ha (converted). After the treatment, the pots were placed in a greenhouse and kept under good growth conditions for the test plants. After about 3 weeks, the effect of the preparations was scored visually in comparison with untreated controls as percentages. For example, 100% activity=the plants have died, 0% activity=like control plants.
`Fc1cccc(Oc2ncc(Cl)cn2)c1-c1cc(C(F)F)no1` [US 2016/ 333000 No. 144] was tested, and the “Crop plant compatibility in pre-emergence, ZEAMX (damage to corn)” value was 30%. In the case of `FC(F)c1cc(-c2ccccc2Oc2ncc(Cl)cn2)on1` [US 2016/ 333000 No. 53], the “Crop plant compatibility in pre-emergence, ZEAMX (damage to corn)” value is reported as 50%.

The compounds below were run on soybean (GLXMA, var. Sultana) (assay: Pre-emergence crop plant compatibility (Table E1)). Details: dosage 80 g/ha, scored after about 3 weeks, 0% = like control plants.
Format: in vivo
Source text: as §2
With `Fc1cccc(Oc2ncc(Cl)cn2)c1-c1cc(C(F)F)no1` [US 2016/ 333000 No. 144] the “Crop plant compatibility in pre-emergence, GLXMA (damage to soybean)” value was 100%. For `FC(F)c1cc(-c2ccccc2Oc2ncc(Cl)cn2)on1` [US 2016/ 333000 No. 53], the “Crop plant compatibility in pre-emergence, GLXMA (damage to soybean)” value was 80%.

Each compound was assayed on wheat (TRZAS, var. Triso) (assay: Pre-emergence crop plant compatibility (Table E1)). Details: dosage 80 g/ha, scored after about 3 weeks, 0% = like control plants.
Format: in vivo
Source text: as §2
In the case of `Fc1cccc(Oc2ncc(Cl)cn2)c1-c1cc(C(F)F)no1` [US 2016/ 333000 No. 144], the “Crop plant compatibility in pre-emergence, TRZAS (damage to wheat)” value is reported as 70%. With `FC(F)c1cc(-c2ccccc2Oc2ncc(Cl)cn2)on1` [US 2016/ 333000 No. 53] the “Crop plant compatibility in pre-emergence, TRZAS (damage to wheat)” value was 20%.

What follows are compounds tested on harmful plants AGSTE, DIPTE, LOLPE, MATCH, POAAN, SETVI, STEME and VERPE (assay: Herbicidal early post-emergence action, summary of Tables A1-A8). Details: application rate of 1900 g of active ingredient per hectare; summary in words.
Format: in vivo
Description: as §1, with “plants.” for “plants. Tables A1 to A8 below show the effects of selected compounds of the general formula (I) according to Table 1 on various harmful plants and an application rate corresponding to 1900 g/ha, which were obtained by the experimental procedure mentioned above.”
Tables A1 to A8 below show the effects of selected compounds of the general formula (I) according to Table 1 on various harmful plants and an application rate corresponding to 1900 g/ha, which were obtained by the experimental procedure mentioned above.
As the results of Tables A1-A8 show, compounds no.
With `Cc1cc(-c2ccccc2Oc2ncc(Cl)cc2F)ncn1` [Example 1-109] the “herbicidal activity against the harmful plants of Tables A1-A8 in early post-emergence treatment” value (“herbicidal activity” for short) was “very good herbicidal activity”. For `Fc1cccc(Oc2ncc(C(F)(F)F)cc2Cl)c1-c1cc(C(F)(F)F)on1` [Example 1-5], the “herbicidal activity” value was “very good herbicidal activity”. In the case of `Cc1cc(-c2ccccc2Oc2ccc(Cl)cn2)ncn1` [Example 1-108], the “herbicidal activity” value is reported as “very good herbicidal activity”. For `Fc1cc(Cl)cnc1Oc1ccccc1-c1cc(C(F)(F)F)no1` [Example 1-112], the “herbicidal activity” value was “very good herbicidal activity”. For `Fc1cccnc1Oc1cccc(F)c1-c1cc(C(F)F)on1` [Example 1-14], the “herbicidal activity” value was “very good herbicidal activity”. `Cc1ccc(Oc2ccccc2-c2cccc(C(F)(F)F)n2)nc1` [Example 1-51] was tested, and the “herbicidal activity” value was “very good herbicidal activity”. With `Fc1cccc(Oc2ccccn2)c1-c1cc(C(F)F)on1` [Example 1-8] the “herbicidal activity” value was “very good herbicidal activity”. In the case of `FC(F)(F)c1ccnc(-c2ccccc2Oc2ccc(Cl)cn2)c1` [Example 1-70], the “herbicidal activity” value is reported as “very good herbicidal activity”. `CSc1cccc(Oc2ccc(Cl)cn2)c1-c1cc(C(F)F)no1` [Example 1-56] was tested, and the “herbicidal activity” value was “very good herbicidal activity”. In the case of `Fc1cc(Cl)cnc1Oc1ccccc1-c1cc(C(F)(F)F)ccn1` [Example 1-69], the “herbicidal activity” value is reported as “very good herbicidal activity”. In the case of `Fc1ccc(Oc2cccc(F)c2-c2cc(C(F)F)no2)nc1` [Example 1-41], the “herbicidal activity” value is reported as “very good herbicidal activity”. `Fc1cc(Cl)cnc1Oc1ccccc1-c1ccc(C(F)(F)F)cn1` [Example 1-66] was tested, and the “herbicidal activity” value was “very good herbicidal activity”. `Cn1nc(C(F)F)cc1-c1cc(F)ccc1Oc1ccc(Cl)cn1` [Example 1-32] was tested, and the “herbicidal activity” value was “very good herbicidal activity”.
